Patent publication US12497393B2, “β-lactam compound, use thereof and preparation method therefor” (priority 2020, dated 2025)
In brackets after ≈: the same amount, converted by molar mass. Where two headings read alike, the source gives them in different places. Where a SMILES comes first, the peptide text is derived from it. Bridges are numbered along the chain shown (N, C = ends). [ ]: non-standard residue; d: D form. The star is where a group is joined. Heptanoyl(6-Me) = CC(C)CCCCC(=O)*; Dab = NCC[C@H](N)C(=O)O

Experiments:
Assay in all cases: Antibacterial activity MIC assay (two-fold dilution agar plating)
Format in all cases: cell-based
[1] = system: Escherichia coli; settings: for MIC: Escherichia coli, read-out: Minimal Inhibitory Concentration (MIC)
Method: (§1) Antibacterial Activity-Evaluating Method (MIC Assay)
(§2) In this study, the compounds of the present invention were tested for their antibacterial activities by using two-fold dilution agar plating method and Denley Multipoint Inoculator A400 according to the guidelines of the CLSI/NCCLS standard. The tested strains were amplified by hydrolyzed casein peptone (Mueller-Hinton Agar) broth and Brain and Heart Infusion. The strains used in this study were bacterial strains that were purchased from ATCC or clinically isolated in Chinese hospitals. Aztreonam, polymyxin or levofloxacin was used as positive control. The drugs were diluted with hydrolyzed casein peptone broth to the desired concentrations including 128.0, 64.0, 32.0, 16.0, 8.0, 4.0, 2.0, 1.0, 0.5, 0.25, 0.125, 0.06 and 0.03 μg/mL, and then placed respectively into each well and mixed thoroughly. After inoculation, the tested strains were incubated for 18 hours at a constant temperature of 35° C., and their growth levels were observed. The drug concentration with no microbial growth in the well was recorded as the lowest Minimal Inhibitory Concentration (MIC).

[2] = system: Shigella flexneri; settings: Shigella flexneri ATCC 12022
Method: as §1, §2

[3] = system: Klebsiella Pneumoniae; settings: for MIC: Klebsiella pneumoniae, read-out: Minimal Inhibitory Concentration (MIC)
Method: as §1, §2

[4] = system: Proteus vulgaris
Method: as §1, §2

[5] = system: Enterobacter aerogenes; settings: Enterobacter aerogenes ATCC 13048
Method: as §1, §2

[6] = system: Acinetobacter baumannii; settings: for MIC: Acinetobacter baumannii, read-out: Minimal Inhibitory Concentration (MIC)
Method: as §1, §2

[7] = system: Providencia rettgeri
Method: as §1, §2

[8] = system: Serratia marcescens; settings: Serratia marcescens ATCC 21074
Method: as §1, §2

[9] = system: Stenotrophomonas maltophilia; settings: Stenotrophomonas maltophilia ATCC 13636
Method: as §1, §2

[10] = system: Salmonella typhi
Method: as §1, §2

[11] = system: Pseudomonas aeruginosa; settings: for MIC: read-out: Minimal Inhibitory Concentration (MIC)
Method: as §1, §2

[12] = system: Enterobacter cloacae; settings: for MIC: read-out: Minimal Inhibitory Concentration (MIC)
Method: as §1, §2

[13] = system: Proteus mirabilis
Method: as §1, §2

[14] = system: Citrobacter freundii; settings: Citrobacter freundii ATCC 43864
Method: as §1, §2

[15] = Escherichia coli 08-85, mcr-1(+)
[16] = Escherichia coli 13-43, mcr-1(+)
[17] = Escherichia coli 13-66, mcr-1(+)
[18] = Escherichia coli 16-1, ESBLs(+)
[19] = Escherichia coli 16-7, ESBLs(−)
[20] = Escherichia coli CDC1001728, NDM-1(+)
[21] = Klebsiella Pneumoniae 09-20, mcr-1(+)
[22] = Klebsiella Pneumoniae 16-2, ESBLs(−)
[23] = Klebsiella Pneumoniae 16-14, ESBLs(+)
[24] = Enterobacter cloacae CDC1000654

## CC(C)[C@@H](O/N=C(\C(=O)N[C@@H]1C(=O)N(OS(=O)(=O)O)C1(C)C)c1csc(N)n1)C(=O)O [Compound A-5]
[1]; ATCC25922, Escherichia coli ATCC 25922, ESBLs(−)
  MIC: 16 µg/mL (≈ 33.4 µM)
[1]; ATCC35218, Escherichia coli ATCC 35218, ESBLs(+)
  MIC: 16 µg/mL (≈ 33.4 µM)
[1]; [15]
  MIC: 32 µg/mL (≈ 66.7 µM)
[1]; [16]
  MIC: 32 µg/mL (≈ 66.7 µM)
[1]; [17]
  MIC: 16 µg/mL (≈ 33.4 µM)
[1]; [18]
  MIC: 8 µg/mL (≈ 16.7 µM)
[1]; [19]
  MIC: 32 µg/mL (≈ 66.7 µM)
[1]; Escherichia coli 17-R28, CRE, NDM-1(+)
  MIC: > 64 µg/mL
[1]; [20]
  MIC: 32 µg/mL (≈ 66.7 µM)
[2]; ATCC12022, read-out: Minimal Inhibitory Concentration (MIC)
  MIC: 64 µg/mL (≈ 133 µM)
[3]; ATCC700603, Klebsiella Pneumoniae ATCC 700603, ESBLs(+)
  MIC: 64 µg/mL (≈ 133 µM)
[3]; ATCCBAA2146, Klebsiella Pneumoniae ATCC BAA-2146, NDM-1(+)
  MIC: > 64 µg/mL
[3]; [21]
  MIC: 16 µg/mL (≈ 33.4 µM)
[3]; [22]
  MIC: 32 µg/mL (≈ 66.7 µM)
[3]; [23]
  MIC: 16 µg/mL (≈ 33.4 µM)
[3]; Klebsiella Pneumoniae 17-R27, CRE
  MIC: 32 µg/mL (≈ 66.7 µM)
[4]; Proteus vulgaris, ATCC29905, Proteus vulgaris ATCC 29905, read-out: Minimal Inhibitory Concentration (MIC)
  MIC: 4 µg/mL (≈ 8.34 µM)
[5]; Klebsiella aerogenes, ATCC13048, read-out: Minimal Inhibitory Concentration (MIC)
  MIC: 32 µg/mL (≈ 66.7 µM)
[6]; ATCC19606, Acinetobacter baumannii ATCC 19606
  MIC: > 64 µg/mL
[6]; Acinetobacter baumannii 16-16
  MIC: > 64 µg/mL
[6]; Acinetobacter baumannii 16-33
  MIC: > 64 µg/mL
[7]; Providencia rettgeri, ATCC31052, Providencia rettgeri ATCC 31052, read-out: Minimal Inhibitory Concentration (MIC)
  MIC: 4 µg/mL (≈ 8.34 µM)
[8]; ATCC21074, read-out: Minimal Inhibitory Concentration (MIC)
  MIC: 32 µg/mL (≈ 66.7 µM)
[9]; ATCC13636, read-out: Minimal Inhibitory Concentration (MIC)
  MIC: > 64 µg/mL
[10]; Salmonella enterica, TYPHI, read-out: Minimal Inhibitory Concentration (MIC)
  MIC: 32 µg/mL (≈ 66.7 µM)
[11]; ATCC27853, Pseudomonas aeruginosa ATCC 27853
  MIC: > 64 µg/mL
[11]; Pseudomonas aeruginosa 16-11
  MIC: > 64 µg/mL
[11]; Pseudomonas aeruginosa PAO1
  MIC: > 64 µg/mL
[12]; ATCC43560, Enterobacter cloacae ATCC 43560
  MIC: 16 µg/mL (≈ 33.4 µM)
[12]; [24]
  MIC: > 64 µg/mL
[13]; Proteus mirabilis, ATCC49565, Proteus mirabilis ATCC 49565, read-out: Minimal Inhibitory Concentration (MIC)
  MIC: 1 µg/mL (≈ 2.09 µM)
[14]; ATCC43864, read-out: Minimal Inhibitory Concentration (MIC)
  MIC: 16 µg/mL (≈ 33.4 µM)

## CC(C)CCCCC(=O)N[C@@H](CCN)C(=O)N[C@H](C(=O)N[C@@H](CCN)C(=O)N[C@H]1CCNC(=O)[C@H]([C@@H](C)O)NC(=O)[C@H](CCN)NC(=O)[C@H](CCN)NC(=O)[C@H](CC(C)C)NC(=O)[C@@H](CC(C)C)NC(=O)[C@H](CCN)NC1=O)[C@@H](C)O [Colistin B, colistin B, reference compound] ({Heptanoyl(6-Me)}-[Dab]T[Dab][Dab][Dab][dL]L[Dab][Dab]T; lactam 4-C)
[1]; [15]
  Minimal Inhibitory Concentration (MIC): 8 µg/mL
[1]; [16]
  Minimal Inhibitory Concentration (MIC): 8 µg/mL
[1]; [17]
  Minimal Inhibitory Concentration (MIC): 8 µg/mL
[1]; [18]
  Minimal Inhibitory Concentration (MIC): 0.5 µg/mL
[1]; [19]
  Minimal Inhibitory Concentration (MIC): 1 µg/mL
[1]; Escherichia coli ATCC 25922, ESBLs(−)
  Minimal Inhibitory Concentration (MIC): 1 µg/mL
[1]; Escherichia coli ATCC 35218, ESBLs(+)
  Minimal Inhibitory Concentration (MIC): 1 µg/mL
[1]; [20]
  Minimal Inhibitory Concentration (MIC): 1 µg/mL
[2]
  Minimal Inhibitory Concentration (MIC): 0.5 µg/mL
[3]; [21]
  Minimal Inhibitory Concentration (MIC): 16 µg/mL
[3]; [22]
  Minimal Inhibitory Concentration (MIC): 1 µg/mL
[3]; [23]
  Minimal Inhibitory Concentration (MIC): 1 µg/mL
[3]; Klebsiella Pneumoniae ATCC 700603, ESBLs(+)
  Minimal Inhibitory Concentration (MIC): 2 µg/mL
[3]; Klebsiella Pneumoniae ATCC BAA-2146, NDM-1(+)
  Minimal Inhibitory Concentration (MIC): 1 µg/mL
[4]; Proteus vulgaris ATCC 29905
  Minimal Inhibitory Concentration (MIC): >64 µg/mL
[5]
  Minimal Inhibitory Concentration (MIC): 2 µg/mL
[6]; Acinetobacter baumannii 16-16
  Minimal Inhibitory Concentration (MIC): 1 µg/mL
[6]; Acinetobacter baumannii 16-33
  Minimal Inhibitory Concentration (MIC): 2 µg/mL
[6]; Acinetobacter baumannii ATCC 19606
  Minimal Inhibitory Concentration (MIC): 1 µg/mL
[7]; Providencia rettgeri ATCC 31052
  Minimal Inhibitory Concentration (MIC): >64 µg/mL
[8]
  Minimal Inhibitory Concentration (MIC): >64 µg/mL
[9]
  Minimal Inhibitory Concentration (MIC): >64 µg/mL
[10]; Salmonella typhi H901
  Minimal Inhibitory Concentration (MIC): 1 µg/mL
[11]; Pseudomonas aeruginosa 16-11
  Minimal Inhibitory Concentration (MIC): 4 µg/mL
[11]; Pseudomonas aeruginosa ATCC 27853
  Minimal Inhibitory Concentration (MIC): 4 µg/mL
[11]; Pseudomonas aeruginosa PAO1
  Minimal Inhibitory Concentration (MIC): 8 µg/mL
[12]; Enterobacter cloacae ATCC 43560
  Minimal Inhibitory Concentration (MIC): >64 µg/mL
[12]; [24]
  Minimal Inhibitory Concentration (MIC): 1 µg/mL
[13]; Proteus mirabilis ATCC 49565
  Minimal Inhibitory Concentration (MIC): >64 µg/mL
[14]
  Minimal Inhibitory Concentration (MIC): 2 µg/mL
